Results from patent US20210145768A1, “MODULATING IMMUNE RESPONSE VIA TARGETING OF OLFACTORY RECEPTOR ACTIVITY” (La Jolla Institute for Allergy and Immunology, priority 2018, published 2021).

How the values were obtained:
[1] = Plasma lipids, body weight and hematological parameters in treated Apoe−/− mice; assay type: in vivo, mouse
Description: Male Apoe^−/− mice (9 to 10 wks old) were fed WD for 4 weeks. Oct or Cit were diluted in sterile phosphate buffered saline (PBS) (Gibco) at a final concentration of 10 μg/g. 100 μl were injected intraperitoneally (i.p.) every 3 days for 4 weeks (12 injections total) while maintaining WD administration. PBS+0.1% DMSO (Sigma Aldrich) was injected as a vehicle control following the same protocol. Mice were sacrificed, perfused with PBS implemented with 2% heparin (Fresenius Kabi USA, LLC) and aortas removed for en face atherosclerotic lesion assessment. Mouse whole blood (heart puncture) was collected in EDTA tubes. Leukocyte blood counts were determined with HemaVet 950 (Drew Scientific). Plasma was collected from blood centrifuged at 3000 g for 15 min at 4° C. and stored at −80° C. until further analysis. Lipid analysis of collected plasma was performed by IDEXX BioResearch.

Olfr2 [2] = biological target: T1, Olfr2 (Mus musculus, UniProt Q9QWU6); experiment: Calcium signalling (Fluo-4, flow cytometry) in vascular macrophages; assay type: cell-based; design: Olfr2 expression was confirmed at the protein level on F4/80^+ vascular macrophages; from tissue; host or cells: explanted whole aortas, digested aortic cell suspensions (F4/80+ vascular macrophages) and blood monocytes of Apoe-/- C57BL/6J mice; living Apoe-/- mice for the in vivo study
T1 sequence (Q9QWU6 1-327): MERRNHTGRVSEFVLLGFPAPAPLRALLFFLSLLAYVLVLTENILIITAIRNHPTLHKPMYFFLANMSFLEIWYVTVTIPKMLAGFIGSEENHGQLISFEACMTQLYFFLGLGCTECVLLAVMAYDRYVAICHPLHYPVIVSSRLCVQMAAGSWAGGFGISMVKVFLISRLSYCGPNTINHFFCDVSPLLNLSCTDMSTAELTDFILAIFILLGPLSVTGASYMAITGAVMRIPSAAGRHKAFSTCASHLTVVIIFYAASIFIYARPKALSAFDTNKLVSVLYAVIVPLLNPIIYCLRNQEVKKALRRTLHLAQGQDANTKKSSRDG
Description: The role of Olfr2 ligation on inflammatory responses was investigated by measuring intracellular free calcium (Can in vascular macrophages. Briefly, mouse aortic cell suspensions were loaded with 2 μM Fluo-4 at 37° C. for 30 min, then washed and incubated with cell surface markers at RT for 20 min CD45^+, live, dump channel^− (TCRb^−, CD19^−), F4/80^+ macrophages were analyzed by flow cytometry. Olfr2 agonist Oct (10 μM), and antagonist Cit (100 μM) alone or combined (Oct+Cit) were added 60 seconds (s) after the acquisition started. DMSO (0.1%) was injected as a control (Ctrl).
Aortic cell suspensions obtained as previously described^18 were pre-incubated with extracellular markers for vascular macrophages including CD45-PerCP, TCRβ/CD4-APCCy7 (Dump Channel), F4/80-BV421 and LD Yellow fixable dye (Invitrogen) for 20 min in Fc block solution at RT in the dark. Aortic cell suspensions were than washed twice and loaded with 2 μM of Fluo4 dye (Thermo Fischer Scientific) for 30 min at 37° C.
Subsequently, cells were washed and resuspended in 37° C. warm HBSS buffer containing Ca^2+ and Mg^2+ and acquired with the LSRII flow cytometer. After 60 seconds, Oct (10 μM), Cit (100 μM) or vehicle (DMSO 0.1%) was added and acquisition continued for additional 140 seconds. Data was acquired with FACSDiva software (BD Biosciences) and analyzed with FlowJo software (Treestar Inc). Mean fluorescence intensity of Fluo4 was integrated over 25 seconds form the start of the acquisition (tot. 8 intervals).

Olfr2 [3] = experiment: Olfr2, Rtp1 and Rtp2 mRNA expression (qPCR) in explanted aortas; assay type: cell-based, mouse
Text: Next, Olfr2 expression in aortas harvested from western-type diet (WD)-fed male mice (n=5) was investigated^18. Briefly, whole aortas were harvested from Apoe^−/− mice fed western-like diet (WD) for 2 weeks and treated as described above. Relative expression of Olfr2 quantified by real time PCR analysis of Olfr2 expression normalized to expression of Gapdh and untreated control.
In addition, Rtp1 and Rtp2 expression in aortas harvested from Apoe−/− mice was investigated. Briefly, explanted aortas of Apoe−/− mice treated for 12h with Oct (10 μM) and/or lipopolysaccharide (LPS, 500 ng/mL). Rtp1 and Rtp2 expression was assessed by qPCR as described above. N=3 independent experiments (relative expression calculated by 2^−ΔΔCt method). Data are presented as means±SEM. *p<0.05, **p<0.01, ***p<0.005, ****p<0.001. p calculated by One-Way ANOVA test, Tukey's multiple comparisons test.
BMDMs and hMDMs were incubated in culture media for 12 h at 37° C. and 5% CO2 with Oct, (10 μM), LPS (500 ng/mL) alone or combined with Oct (LPS+Oct) and DMSO (0.1%) as a control and lysed with Qiazol (500 μL; Qiagen) Similarly, whole aortas incubated as previously described were transferred into Qiazol (500 μl; Qiagen) and digested with gentleMACS™ Dissociator (Miltenyi).
Total RNA was quantified using a nanodrop spectrophotometer (Peqlab) and 500 ng were reverse transcribed into cDNA using Omniscript reverse transcriptase (Qiagen). Real time PCR reactions were performed according to the RT^2 SYBR green gene expression assay protocol (Qiagen). RT2 SYBR Green qPCR master mix and premade RT^2 qPCR Primer Assays for mouse Olfr2, Rtp1, Rtp2, Ccl2, Ccl4, Tnf, Nos2 and Gapdh were used. Similarly, real time PCR analysis of hMDMs samples was performed following the RT^2 SYBR green gene expression assay protocol (Qiagen), applying RT^2 SYBR Green qPCR master mix and premade RT^2 qPCR Primer Assays for human OR6A2, TNF, IL-6, NOS2 and GAPDH. The results were calculated applying the 2^−ΔΔCT method^32 using Gapdh/GAPDH as housekeeping gene.

SMILES | total cholesterol, LDL cholesterol, HDL cholesterol or triglycerides ([1]; octanal-treated Apoe−/− mice) | calcium signal in other immune cells (TCRb+, CD19+) (Olfr2 [2]; octanal 10 μM, citral 100 μM alone or combined) | intracellular free calcium (Fluo-4 MFI) in F4/80+ vascular macrophages (Olfr2 [2]; octanal 10 μM, at 100 and 125 s after injection) | aortic Olfr2, Rtp1 and Rtp2 mRNA (Olfr2 [3]; LPS 500 ng/mL + octanal 10 μM ex vivo, 12 h) | Olfr2 expression (qRT-PCR) (Olfr2 [3]; LPS + octanal) | Olfr2 expression (qRT-PCR) (Olfr2 [3]; octanal alone) | other parameters (body weight, hematological, lipids) ([1]; citral-treated Apoe−/− mice) | octanal-induced calcium flux in vascular macrophages (Olfr2 [2]; citral 100 μM + octanal 10 μM) | Olfr2 mRNA expression (Olfr2 [3]; citral, data not shown)
CCCCCCCC=O [octanal] | no effect | No calcium signal | highly significant increase | significantly enhanced | further increased | no effect |  |  | 
CC(C)=CCCC(C)=CC=O [citral] |  |  |  |  |  |  | no effect | completely blocked | did not affect
